# Test results as given in patent publication US20230340011A1 (Asteroid Therapeutics, priority 2022, published 2023).
# pEC50, pIC50: −log10 of the molar value.
# Legend:
# [1] = biological target: SREBP-2 (Homo sapiens (Human), UniProt Q12772); assay: In vitro assay SREBP-2: PathHunter U2OS SREBP-2 Nuclear Translocation Cell Line, U18666A-stimulated; format: cell-based; conditions: PathHunter U2OS SREBP-2 nuclear translocation cells, U18666A 10 μM, overnight (16 hours)
# [2] = biological target: LXRβ (Homo sapiens (Human), UniProt P55055); assay: In vitro assay LXRβ: PathHunter NHR CHO cells, LXRβ / Steroid Receptor Co-activator Peptide enzyme fragment complementation; format: cell-based; conditions: PathHunter NHR CHO cells, full-length human LXRβ and SRCP, chemiluminescent signal; read-out: LXRβ PPI
# Chain of LXRβ (P55055 whole entry, the tested form may be a part): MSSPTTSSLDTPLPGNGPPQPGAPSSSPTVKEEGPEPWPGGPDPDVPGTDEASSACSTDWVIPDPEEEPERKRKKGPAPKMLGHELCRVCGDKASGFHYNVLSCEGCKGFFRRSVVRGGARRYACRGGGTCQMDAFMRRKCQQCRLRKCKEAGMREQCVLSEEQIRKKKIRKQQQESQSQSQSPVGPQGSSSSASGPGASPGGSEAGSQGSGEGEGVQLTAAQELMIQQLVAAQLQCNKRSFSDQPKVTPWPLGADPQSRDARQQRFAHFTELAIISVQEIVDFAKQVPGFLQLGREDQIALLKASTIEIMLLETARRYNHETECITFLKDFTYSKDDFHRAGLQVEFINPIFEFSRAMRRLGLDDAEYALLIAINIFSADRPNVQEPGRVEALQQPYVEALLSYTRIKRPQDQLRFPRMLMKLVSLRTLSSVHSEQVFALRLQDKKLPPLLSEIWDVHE
# Summary of the method: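 Enzyme fragment complementation read-out: CHO cells stably expressing ProLink-tagged full-length human LXRβ plus nuclear enzyme acceptor–SRCP fusion, seeded and held overnight at 37° C. Medium with charcoal-dextran filtered serum; final vehicle 1%. Chemiluminescence measured after signal generation.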
SMILES,pIC50 [1],pEC50 [2]
"C[C@H](COc1ccncc1)[C@H]1CC[C@H]2[C@@H]3CC=C4C[C@@H](O)CC[C@]4(C)[C@H]3CC[C@]12C [Example 181, (8S,9S,10R,13S,14S,17R)-10,13-dimethyl-17-((S)-1-(pyridin-4-yloxy)propan-2-yl)-2,3,4,7,8,9,10,11,12,13,14,15,16,17-tetradecahydro-1H-cyclopenta[a]phenanthren-3-ol]",6.00 to 6.60,< 5.00
"C[C@H](CCc1ncns1)[C@H]1CC[C@H]2[C@@H]3CC=C4C[C@@H](O)CC[C@]4(C)[C@H]3CC[C@]12C [Example 174, (1R,3aS,3bS,7S,9aR,9bS,11aR)-9a,11a-dimethyl-1-[(2R)-4-(1,2,4-thiadiazol-5-yl)butan-2-yl]-1H,2H,3H,3aH,3bH,4H,6H,7H,8H,9H,9aH,9bH,10H,11H,11aH-cyclopenta[a]phenanthren-7-ol]",6.00 to 6.60,6.00 to 6.60
"CCN(C(=O)C(=O)O[C@@H](C)[C@H]1CC[C@H]2[C@@H]3CC=C4C[C@@H](O)CC[C@]4(C)[C@H]3CC[C@]12C)C(C)C [Example 197, (S)-1-((3S,8S,9S,10R,13S,14S,17S)-3-hydroxy-10,13-dimethyl-2,3,4,7,8,9,10,11,12,13,14,15,16,17-tetradecahydro-1H-cyclopenta[a]phenanthren-17-yl)ethyl 2-(ethyl(isopropyl)amino)-2-oxoacetate]",> 6.60,6.00 to 6.60
"CC(C)OC(=O)N1CCN(C(=O)CC[C@@H](C)[C@H]2CC[C@H]3[C@@H]4CC=C5C[C@@H](O)CC[C@]5(C)[C@H]4CC[C@]23C)CC1 [Example 341, isopropyl4-((R)-4-((3S,8S,9S,10R,13R,14S,17R)-3-hydroxy-10,13-dimethyl-2,3,4,7,8,9,10,11,12,13,14,15,16,17-tetradecahydro-1H-cyclopenta[a]phenanthren-17-yl)pentanoyl)piperazine-1-carboxylate]",> 6.60,< 5.00
"C[C@H](CCC(=O)N(C)C)[C@H]1CC[C@H]2[C@@H]3CC=C4CC(F)(F)CC[C@]4(C)[C@H]3CC[C@]12C [Example 127, (R)-4-((8S,9S,10R,13R,14S,17R)-3,3-difluoro-10,13-dimethyl-2,3,4,7,8,9,10,11,12,13,14,15,16,17-tetradecahydro-1H-cyclopenta[a]phenanthren-17-yl) -N,N-dimethylpentanamide]",< 5.00,< 5.00
"COc1ccnc(N2CCN(C(=O)CC[C@@H](C)[C@H]3CC[C@H]4[C@@H]5CC=C6C[C@@H](O)CC[C@]6(C)[C@H]5CC[C@]34C)CC2)c1 [Example 657, (R)-4-((3S,8S,9S,10R,13R,14S,17R)-3-hydroxy-10,13-dimethyl-2,3,4,7,8,9,10,11,12,13,14,15,16,17-tetradecahydro-1H-cyclopenta[a]phenanthren-17-yl)-1-(4-(4-methoxypyridin-2-yl)piperazin-1-yl)pentan-1-one]",> 6.60,< 5.00
"C=CCN1C[C@@H]2CCN(C(=O)CC[C@@H](C)[C@H]3CC[C@H]4[C@@H]5CC=C6C[C@@H](O)CC[C@]6(C)[C@H]5CC[C@]34C)[C@@H]2C1 [Example 139, (R)-1-((3aS,6aS)-5-allylhexahydropyrrolo[3,4-b]pyrrol-1(2H)-yl)-4-((3S,8S,9S,10R,13R,14S,17R)-3-hydroxy-10,13-dimethyl-2,3,4,7,8,9,10,11,12,13,14,15,16,17-tetradecahydro-1H-cyclopenta[a]phenanthren-17-yl)pentan-1-one]",6.00 to 6.60,< 5.00
"C[C@H](CCC(=O)N1CCN(c2ccncc2)CC1)[C@H]1CC[C@H]2[C@@H]3CC=C4C[C@@H](O)CC[C@]4(C)[C@H]3CC[C@]12C [Example 396, (R)-4-((3S,8S,9S,10R,13R,14S,17R)-3-hydroxy-10,13-dimethyl-2,3,4,7,8,9,10,11,12,13,14,15,16,17-tetradecahydro-1H-cyclopenta[a]phenanthren-17-yl)-1-(4-(pyridin-4-yl)piperazin-1-yl)pentan-1-one]",> 6.60,< 5.00
"C[C@H](CCC(=O)N1CCC(C)(NS(C)(=O)=O)CC1)[C@H]1CC[C@H]2[C@@H]3CC=C4C[C@@H](O)CC[C@]4(C)[C@H]3CC[C@]12C [Example 84, N-(1-((R)-4-((3S,8S,9S,10R,13R,14S,17R)-3-hydroxy-10,13-dimethyl-2,3,4,7,8,9,10,11,12,13,14,15,16,17-tetradecahydro-1H-cyclopenta[a]phenanthren-17-yl)pentanoyl)-4-methylpiperidin-4-yl)methanesulfonamide]",6.00 to 6.60,< 5.00
"C=CCN1C[C@H]2CCN(C(=O)CC[C@@H](C)[C@H]3CC[C@H]4[C@@H]5CC=C6C[C@@H](O)CC[C@]6(C)[C@H]5CC[C@]34C)[C@H]2C1 [Example 140, (R)-1-((3aR,6aR)-5-allylhexahydropyrrolo[3,4-b]pyrrol-1(2H)-yl)-4-((3S,8S,9S,10R,13R,14S,17R)-3-hydroxy-10,13-dimethyl-2,3,4,7,8,9,10,11,12,13,14,15,16,17-tetradecahydro-1H-cyclopenta[a]phenanthren-17-yl)pentan-1-one]",6.00 to 6.60,< 5.00
"C[C@H](CCC(=O)N1CCN(C(=O)N2CCCC2)CC1)[C@H]1CC[C@H]2[C@@H]3CC=C4C[C@@H](O)CC[C@]4(C)[C@H]3CC[C@]12C [Example 207, (R)-4-((3S,8S,9S,10R,13R,14S,17R)-3-hydroxy-10,13-dimethyl-2,3,4,7,8,9,10,11,12,13,14,15,16,17-tetradecahydro-1H-cyclopenta[a]phenanthren-17-yl)-1-(4-(pyrrolidine-1-carbonyl)piperazin-1-yl) pentan-1-one]",> 6.60,< 5.00
"C[C@H](CCc1cccnn1)[C@H]1CC[C@H]2[C@@H]3CC=C4C[C@@H](O)CC[C@]4(C)[C@H]3CC[C@]12C [Example 134, (1R,3aS,3bS,7S,9aR,9bS,11aR)-9a,11a-dimethyl-1-[(2R)-4-(pyridazin-3-yl)butan-2-yl]-1H,2H,3H,3aH,3bH,4H,6H,7H,8H,9H,9aH,9bH,10H,11H,11aH-cyclopenta[a]phenanthren-7-ol]",< 5.00,6.00 to 6.60
"C[C@@H](CCC(=O)N[C@H]1CC[C@@H](C(=O)N(C)C)CC1)[C@H]1CC[C@H]2[C@@H]3CC=C4C[C@@H](O)CC[C@]4(C)[C@H]3CC[C@]12C [Example 641, (1S,4s)-4-((R)-4-((3S,8S,9S,10R,13R,14S,17R)-3-hydroxy-10,13-dimethyl-2,3,4,7,8,9,10,11,12,13,14,15,16,17-tetradecahydro-1H-cyclopenta[a]phenanthren-17-yl)pentanamido)-N,N-dimethylcyclohexane-1-carboxamide]",> 6.60,< 5.00
"CC(=O)N(C)[C@@H]1CCN(C(=O)CC[C@@H](C)[C@H]2CC[C@H]3[C@@H]4CC=C5C[C@@H](O)CC[C@]5(C)[C@H]4CC[C@]23C)C1 [Example 323, N—((R)-1-((R)-4-((3S,8S,9S,10R,13R,14S,17R)-3-hydroxy-10,13-dimethyl-2,3,4,7,8,9,10,11,12,13,14,15,16,17-tetradecahydro-1H-cyclopenta[a]phenanthren-17-yl)pentanoyl)pyrrolidin-3-yl)-N-methylacetamide]",6.00 to 6.60,< 5.00
